{"source": "patent US10556844B2", "about": "“Pyrazole compounds as nitrification inhibitors” (BASF SE, priority 2015, dated 2020)", "tested_on": "nitrification", "experiment": "Inhibition of nitrification in field soil (48 well plate, ammonium sulfate, colour reaction read at 540 nm)", "conditions": "for IN (best inhibition value obtained for a compound): soil, room temperature, up to 72 hrs", "protocol": "The compounds of the invention have been tested as follows in terms of the inhibition of nitrification:\nSoil was sampled fresh from a field (e.g. Limburgerhof), dried and sieved through a 500 μm sieve. Approximately 200 mg of soil were placed into each well of a 48 well plate. Compounds, or DMSO alone, were added at a concentration of 10 ppm, dissolved in 1% DMSO. 6 μmol ammonium sulfate was added per well as well as 4.8 mg NaClO3.\nSubsequently, the samples were incubated at room temperature for up to 72 hrs. After the incubation period 64 mg KCl were added and mixed. 25 μl of the supernatant were placed into a fresh plate and 260 μl of a color reaction solution (from Merck Nr 1.11799.0100) were added.\nMeasurements were taken with a Tecan plate Reader at 540 nm wavelength.\nInhibition is calculated as x=% activity compared to control, and converted to 100-x to give the value of inhibition, rather than activity.", "data": [{"smiles": "C=C=Cn1ccc(C)n1", "note": "[Compound B-5]", "values": [{"measurement": "IN (best inhibition value obtained for a compound)", "setting": "dose of 10 ppm", "value": ">10", "unit": "%"}]}, {"smiles": "C#CCn1nc(O)c2ccccc21", "note": "[Compound A-14]", "values": [{"measurement": "IN (best inhibition value obtained for a compound)", "setting": "dose of 10 ppm", "value": 59, "unit": "%"}]}, {"smiles": "C=C=Cn1nccc1C", "note": "[Compound B-6]", "values": [{"measurement": "IN (best inhibition value obtained for a compound)", "setting": "dose of 10 ppm", "value": ">10", "unit": "%"}]}, {"smiles": "C#Cc1ccccc1", "note": "[Phenylacetylene, phenylacetylene, reference compound]", "values": [{"measurement": "IN (inhibition value)", "setting": "reference compound, same conditions, dose of 10 ppm", "value": 7, "unit": "%"}]}, {"smiles": "C#CCn1ncc2c1C(=O)c1ccccc1C2=O", "note": "[Compound A-33]", "values": [{"measurement": "IN (best inhibition value obtained for a compound)", "setting": "dose of 10 ppm", "value": 44, "unit": "%"}]}, {"smiles": "C#CCn1nc(C)c(OC(C)=O)c1C", "note": "[Compound A-44]", "values": [{"measurement": "IN (best inhibition value obtained for a compound)", "setting": "dose of 5±1 ppm", "value": 59, "unit": "%"}]}, {"smiles": "C#CCn1ncc(C(=O)O)c1C", "note": "[Compound A-42]", "values": [{"measurement": "IN (best inhibition value obtained for a compound)", "setting": "dose of 10 ppm", "value": 17, "unit": "%"}]}, {"smiles": "C#CCn1cccn1", "note": "[Compound A-19]", "values": [{"measurement": "IN (best inhibition value obtained for a compound)", "setting": "dose of 10 ppm", "value": 45, "unit": "%"}]}]}
